Counter-ions that a name gives are not always drawn. Like-named read-outs stand apart in the source and are kept apart here.
Target: Human D1 Receptor (Homo sapiens (Human), UniProt P21728)
Assay: Human D1 receptor binding assay ([^3H]-SCH23390 competition binding)
Details: read-out: Human D1 Receptor Binding, Ki (nM), Geometric mean of 2-4 determinations (unless otherwise indicated)
Experimental: The affinity of the compounds described herein was determined by competition binding assays similar to those described in Ryman-Rasmussen et al., “Differential activation of adenylate cyclase and receptor internalization by novel dopamine D1 receptor agonists”, Molecular Pharmacology 68(4):1039-1048 (2005).
D1 binding assays were performed using over-expressing LTK human cell lines. […] These ligand and tissue concentrations were used in time course studies to determine linearity and equilibrium conditions for binding. Binding was at equilibrium with the specified amount of tissue in 30 minutes at 37° C. […] The pellet was resuspended in assay buffer [50 mM Tris (pH 7.4@ RT) containing 4 mM MgSO4 and 0.5 mM EDTA]. […] Non-specific binding was determined by radioligand binding in the presence of a saturating concentration of (+)-Butaclamol (10 μM), a D1 antagonist. After a 30 minute incubation period at 37° C., assay samples were rapidly filtered through Unifilter-96 GF/B PEI-coated filter plates and rinsed with 50 mM Tris buffer (pH 7.4 at 4° C.). […] The IC50 value (concentration at which 50% inhibition of specific binding occurs) was calculated by linear regression of the concentration-response data in Microsoft Excel. Ki values were calculated according to the Cheng-Prusoff equation: […]

[1] = over-expressing LTK human cell lines, 0.5 nM [^3H]-SCH23390, 30 min at 37° C., footnote a = single determination, b = geometric mean of ≧5 determinations

Chain of Human D1 Receptor (P21728 whole entry): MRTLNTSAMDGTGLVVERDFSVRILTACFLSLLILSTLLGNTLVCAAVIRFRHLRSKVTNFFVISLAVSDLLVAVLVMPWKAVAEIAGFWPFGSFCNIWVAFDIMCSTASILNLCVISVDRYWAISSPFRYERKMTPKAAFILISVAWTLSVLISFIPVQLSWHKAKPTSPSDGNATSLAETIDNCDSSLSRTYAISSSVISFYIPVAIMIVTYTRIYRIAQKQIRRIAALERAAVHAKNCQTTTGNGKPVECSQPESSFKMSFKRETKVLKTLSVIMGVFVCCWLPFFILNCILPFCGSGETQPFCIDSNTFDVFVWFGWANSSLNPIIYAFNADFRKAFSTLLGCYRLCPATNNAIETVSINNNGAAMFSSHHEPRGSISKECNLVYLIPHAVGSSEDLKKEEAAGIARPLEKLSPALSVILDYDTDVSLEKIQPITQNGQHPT

Compound	Ki [nM]	Ki [1] [nM]
Cc1c(-c2ccc(Oc3nccc4c3CCN4)cc2)n(C)c(=O)[nH]c1=O [Example 12, 6-[4-(2,3-Dihydro-1H-pyrrolo[3,2-c]pyridin-4-yloxy)phenyl]-1,5-dimethylpyrimidine-2,4(1H,3H)-dione]		11.1
Cc1cc(Oc2nccc3c2CCN3)ccc1-c1c(C)ncnc1C [Example 2, 4-[4-(4,6-Dimethylpyrimidin-5-yl)-3-methylphenoxy]-2,3-dihydro-1H-pyrrolo[3,2-c]pyridine]	78.1	
Cc1cc(Oc2nccc3c2CCN3)ccc1-c1c(C)n[nH]c(=O)c1C [Example 8, 5-[4-(2,3-Dihydro-1H-pyrrolo[3,2-c]pyridin-4-yloxy)-2-methylphenyl]-4,6-dimethylpyridazin-3(2H)-one]		8.4
Cc1cc(Oc2nccc3c2CCO3)ccc1-c1c(C)ncnc1C [Example 1, 4-[4-(4,6-Dimethylpyrimidin-5-yl)-3-methylphenoxy]-2,3-dihydrofuro[3,2-c]pyridine]		76.8
Cc1c(-c2ccc(Oc3nccc4c3CCO4)cc2)n(C)c(=O)[nH]c1=O [Example 13, 6-[4-(2,3-Dihydrofuro[3,2-c]pyridin-4-yloxy)phenyl]-1,5-dimethylpyrimidine-2,4(1H,3H)-dione, trifluoroacetate salt]		46.1
Cc1cc(Oc2nccc3c2CCO3)ccc1-c1c(C)n[nH]c(=O)c1C [Example 6, (+)-5-[4-(2,3-Dihydrofuro[3,2-c]pyridin-4-yloxy)-2-methylphenyl]-4,6-dimethylpyridazin-3(2H)-one]		12.6
Cc1n[nH]c(=O)c(C)c1-c1ccc(Oc2nccc3c2CCN3)cc1 [Example 4, 5-[4-(2,3-Dihydro-1H-pyrrolo[3,2-c]pyridin-4-yloxy)phenyl]-4,6-dimethylpyridazin-3(2H)-one]	14	
Cc1cc(Oc2nccc3c2CCO3)ccc1-c1c(C)n[nH]c(=O)c1C [Example 5, 5-[4-(2,3-Dihydrofuro[3,2-c]pyridin-4-yloxy)-2-methylphenyl]-4,6-dimethylpyridazin-3(2H)-one]		14
Cc1cc(Oc2nccc3c2CCN3)ccc1-c1c(C)n[nH]c(=O)c1C (single isomer, unassigned; ent-2) [Example 10, 5-[4-(2,3-Dihydro-1H-pyrrolo[3,2-c]pyridin-4-yloxy)-2-methylphenyl]-4,6-dimethylpyridazin-3(2H)-one, ENT-2]		50.5
Cc1n[nH]c(=O)c(C)c1-c1ccc(Oc2ncnc3c2CCN3)cc1 [Example 11, 5-[4-(6,7-Dihydro-5H-pyrrolo[2,3-d]pyrimidin-4-yloxy)phenyl]-4,6-dimethylpyridazin-3(2H)-one]	60.4	
Cc1cc(Oc2nccc3c2CCO3)ccc1-c1c(C)n[nH]c(=O)c1C [Example 7, (−)-5-[4-(2,3-Dihydrofuro[3,2-c]pyridin-4-yloxy)-2-methylphenyl]-4,6-dimethylpyridazin-3(2H)-one]		12.7
Cc1cc(Oc2nccc3c2CCN3)ccc1-c1c(C)n[nH]c(=O)c1C (single isomer, unassigned; ent-1) [Example 9, 5-[4-(2,3-Dihydro-1H-pyrrolo[3,2-c]pyridin-4-yloxy)-2-methylphenyl]-4,6-dimethylpyridazin-3(2H)-one, ENT-1]		35.6

The next lines start with the values.

Ki [nM]	Ki [1] [nM]	Compound
28.9		Cc1cc(Oc2nccc3c2C(O)CO3)ccc1-c1c(C)ncnc1C (stereo not drawn) [Example 17, 4-[4-(4,6-Dimethylpyrimidin-5-yl)-3-methylphenoxy]-2,3-dihydrofuro[3,2-c]pyridin-3-ol]
70.3		Cc1cc(Oc2nccc3c2CCCO3)ccc1-c1c(C)n[nH]c(=O)c1C [Example 14, 5-[4-(3,4-Dihydro-2H-pyrano[3,2-c]pyridin-5-yloxy)-2-methylphenyl]-4,6-dimethylpyridazin-3(2H)-one]
	446	Cc1cc(Oc2ncnc3c2CCC3)ccc1-c1c(C)ncnc1C [Example 20, 4-[4-(4,6-dimethylpyrimidin-5-yl)-3-methylphenoxy]-6,7-dihydro-5H-cyclopenta[d]pyrimidine]
	706	Cc1cc(Oc2nccc3c2CCO3)ccc1-c1c(C)ncc(=O)n1C (single isomer, unassigned) [Example 23, (+)-6-[4-(2,3-dihydrofuro[3,2-c]pyridin-4-yloxy)-2-methylphenyl]-1,5-dimethylpyrazin-2(1H)-one]
	82.5	Cc1cc(Oc2nccc3c2CCO3)ccc1-c1c(C)ncc(=O)n1C [Example 21, 6-[4-(2,3-dihydrofuro[3,2-c]pyridin-4-yloxy)-2-methylphenyl]-1,5-dimethylpyrazin-2(1H)-one]
	162	Cc1n[nH]c(=O)c(C)c1-c1ccc(Oc2nccc3c2CCO3)cc1C#N [Example 26, 5-(2,3-dihydrofuro[3,2-c]pyridin-4-yloxy)-2-(3,5-dimethyl-6-oxo-1,6-dihydropyridazin-4-yl)benzonitrile]
	4.8	Cc1cc(Oc2nccc3c2C(O)CO3)ccc1-c1c(C)n[nH]c(=O)c1C (stereo not drawn) [Example 16, 5-{4-[(3-Hydroxy-2,3-dihydrofuro[3,2-c]pyridin-4-yl)oxy]-2-methylphenyl}-4,6-dimethylpyridazin-3(2H)-one]
	156	Cc1cc(Oc2ncnc3c2CCN3)ccc1-c1c(C)ncnc1C [Example 19, 4-[4-(4,6-dimethylpyrimidin-5-yl)-3-methylphenoxy]-6,7-dihydro-5H-pyrrolo[2,3-d]pyrimidine]
	44.4	Cc1c(-c2ccc(Oc3ncnc4c3CCN4)cc2)n(C)c(=O)[nH]c1=O [Example 27, 6-[4-(6,7-dihydro-5H-pyrrolo[2,3-d]pyrimidin-4-yloxy)phenyl]-1,5-dimethylpyrimidine-2,4(1H,3H)-dione]
	75.8	Cc1cc(Oc2nccc3c2CCN3)ccc1-c1c(C)ncc(=O)n1C (single isomer, unassigned) [Example 25, (−)-6-[4-(2,3-dihydro-1H-pyrrolo[3,2-c]pyridin-4-yloxy)-2-methylphenyl]-1,5-dimethylpyrazin-2(1H)-one]
	201	Cc1cc(Oc2nccc3c2CCN3)ccc1-c1c(C)ncc(=O)n1C (single isomer, unassigned) [Example 24, (+)-6-[4-(2,3-dihydro-1H-pyrrolo[3,2-c]pyridin-4-yloxy)-2-methylphenyl]-1,5-dimethylpyrazin-2(1H)-one]
18.1		Cc1cc(Oc2nccc3c2CCCN3)ccc1-c1c(C)n[nH]c(=O)c1C [Example 15, 4,6-Dimethyl-5-[2-methyl-4-(1,2,3,4-tetrahydro-1,6-naphthyridin-5-yloxy)phenyl]pyridazin-3(2H)-one]
	202	Cc1cc(Oc2nccc3c2CCO3)ccc1-c1c(C)ncc(=O)n1C (single isomer, unassigned) [Example 22, (−)-6-[4-(2,3-dihydrofuro[3,2-c]pyridin-4-yloxy)-2-methylphenyl]-1,5-dimethylpyrazin-2(1H)-one]
	52.1	Cc1cc(Oc2nccc3c2CCO3)ccc1-c1c(C)ncc2nccn12 [Example 18, 5-[4-(2,3-dihydrofuro[3,2-c]pyridin-4-yloxy)-2-methylphenyl]-6-methylimidazo[1,2-a]pyrazine]
	202	Cc1c(-c2ccc(Oc3ncnc4c3CCC4)cc2)n(C)c(=O)[nH]c1=O [Example 28, 6-[4-(6,7-dihydro-5H-cyclopenta[d]pyrimidin-4-yloxy)phenyl]-1,5-dimethylpyrimidine-2,4(1H,3H)-dione]
